Measurements published in ChEMBL document CHEMBL1201862, “PubChem BioAssay data set” (2004).
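Growth conditions: 96-well plates. Treatment: test compound, 48 hours, 5 concentrations. Analysis: linear interpolation between bracketing concentrations; unreached endpoints set to highest concentration. GI50: concentration for 50% inhibition of growth.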 The source made the active and inactive calls. No stated cut-off is given here; in the data, active = GI50 up to about 1.1 µM and inactive = higher.

Tests used:
Test in all cases: NCI anticancer screen, dose series, 48 h
786-0 = system: 786-0
DU-145 = system: DU-145
SW-620 = system: SW-620
MDA-N = system: MDA-N
NCI/ADR-RES = system: NCI/ADR-RES
RPMI-8226 = system: RPMI-8226
PC-3 = system: PC-3
UACC-257 = system: UACC-257
HCT-116 = system: HCT-116
EKVX = system: EKVX
Malme-3M = system: Malme-3M
SK-MEL-5 = system: SK-MEL-5
ACHN = system: ACHN
TK-10 = system: TK-10
SF-295 = system: SF-295
HOP-92 = system: HOP-92
RXF 393 = system: RXF 393
BT-549 = system: BT-549
HCC 2998 = system: HCC 2998

SMILES	GI50 (786-0)	GI50 (DU-145)	GI50 (SW-620)	GI50 (MDA-N)	GI50 (NCI/ADR-RES)	GI50 (RPMI-8226)	GI50 (PC-3)	GI50 (UACC-257)	GI50 (HCT-116)	GI50 (EKVX)	GI50 (Malme-3M)	GI50 (SK-MEL-5)	GI50 (ACHN)	GI50 (TK-10)	GI50 (SF-295)	GI50 (HOP-92)	GI50 (RXF 393)	GI50 (BT-549)	GI50 (HCC 2998)
c1ccc(-c2sc(-c3ccccc3)c3c2C2CCC3C2)cc1	45.9 µM (inactive)	> 100 µM (inactive)	43.3 µM (inactive)	43 µM (inactive)	29.8 µM (inactive)	16.1 µM (inactive)	25.5 µM (inactive)	40.3 µM (inactive)	27 µM (inactive)	42.1 µM (inactive)	31.6 µM (inactive)	20 µM (inactive)	36.1 µM (inactive)	27 µM (inactive)	35.1 µM (inactive)	12.6 µM (inactive)	24.3 µM (inactive)	40.7 µM (inactive)	
O=C(c1ccccc1)c1ccc2[nH]c(-c3c(Cl)c(Cl)c(Cl)c(Cl)c3C(=O)N/N=C/c3ccc(Cl)cc3)nc2c1	31.2 µM (inactive)	56.8 µM (inactive)	54.3 µM (inactive)	29.8 µM (inactive)	47.8 µM (inactive)	19.3 µM (inactive)	37 µM (inactive)	43.3 µM (inactive)	44.6 µM (inactive)	23.2 µM (inactive)	37.4 µM (inactive)	17.2 µM (inactive)	19.9 µM (inactive)	40.1 µM (inactive)	29 µM (inactive)	43.6 µM (inactive)	22.5 µM (inactive)	33.7 µM (inactive)	
Cc1[nH]c2ncn3ncnc3c2c1Cc1ccccc1	> 100 µM (inactive)	> 100 µM (inactive)	> 100 µM (inactive)	> 100 µM (inactive)	> 100 µM (inactive)		> 100 µM (inactive)	> 100 µM (inactive)	> 100 µM (inactive)	> 100 µM (inactive)	> 100 µM (inactive)	> 100 µM (inactive)	> 100 µM (inactive)	> 100 µM (inactive)	> 100 µM (inactive)	54.1 µM (inactive)	50 µM (inactive)	> 100 µM (inactive)	> 100 µM (inactive)
COC(=O)c1c2c(cc3c1CC1(C3)Cc3cc4c(c(C(C)=O)c3C1)CCC4)C=CC2 (stereo not given)	> 31.6 µM (inactive)	> 31.6 µM (inactive)	> 10 µM (inactive)	> 10 µM (inactive)	> 31.6 µM (inactive)	14.2 µM (inactive)	> 31.6 µM (inactive)	> 31.6 µM (inactive)	27.9 µM (inactive)	> 31.6 µM (inactive)	> 10 µM (inactive)	18.6 µM (inactive)	10.2 µM (inactive)	> 31.6 µM (inactive)	> 31.6 µM (inactive)	> 31.6 µM (inactive)	> 10 µM (inactive)	> 31.6 µM (inactive)	> 10 µM (inactive)
CC(C)=CCNc1ncnc2c1ncn2CCC(=O)O	> 100 µM (inactive)	> 100 µM (inactive)	> 100 µM (inactive)	> 100 µM (inactive)	> 100 µM (inactive)	> 100 µM (inactive)	> 100 µM (inactive)		> 100 µM (inactive)		> 100 µM (inactive)	> 100 µM (inactive)	> 100 µM (inactive)	> 100 µM (inactive)	> 100 µM (inactive)	> 100 µM (inactive)	> 100 µM (inactive)	> 100 µM (inactive)	> 100 µM (inactive)
CC(=O)OCC1OC(n2c(C)c(/N=N/c3ccc(Cl)cc3)c(C)c(C#N)c2=S)C(OC(C)=O)C(OC(C)=O)C1OC(C)=O (stereo not given)	19.9 µM (inactive)	73.3 µM (inactive)	> 100 µM (inactive)	> 100 µM (inactive)	> 100 µM (inactive)	> 100 µM (inactive)	> 100 µM (inactive)	62.8 µM (inactive)	48.1 µM (inactive)		> 100 µM (inactive)	64.3 µM (inactive)	58.1 µM (inactive)	40.5 µM (inactive)	25.1 µM (inactive)	0.205 µM (active)	18.2 µM (inactive)	15.3 µM (inactive)	> 100 µM (inactive)
Clc1ccc2c(NCCCC/N=C/c3ccccc3)ccnc2c1	9.16 µM (inactive)	20.7 µM (inactive)	5.78 µM (inactive)	11.7 µM (inactive)	20.7 µM (inactive)	18.1 µM (inactive)	10.4 µM (inactive)	12.3 µM (inactive)	6.24 µM (inactive)	15.5 µM (inactive)	14.4 µM (inactive)	13.5 µM (inactive)	12.5 µM (inactive)	18.6 µM (inactive)	10.4 µM (inactive)	5.52 µM (inactive)	4.09 µM (inactive)	13.4 µM (inactive)	14.5 µM (inactive)
CC(O)CCCCC(O)CCC[C@H](O)[C@H]1CCC([C@H]2CCC([C@@H](O)CCCCCCCCCCCCC3=C[C@H](C)OC3=O)O2)O1 (stereo not given in full)	14.4 µM (inactive)	12 µM (inactive)	12.8 µM (inactive)	10.6 µM (inactive)	2.44 µM (inactive)		10.7 µM (inactive)	9.33 µM (inactive)	0.0667 µM (active)	8.15 µM (inactive)		7.93 µM (inactive)	10.2 µM (inactive)	9.48 µM (inactive)	9.29 µM (inactive)	11.4 µM (inactive)	12.1 µM (inactive)	11.2 µM (inactive)	13.2 µM (inactive)
Oc1cc(-c2cccc(Cl)c2)nc2ncccc12	0.249 µM (active)	0.644 µM (active)	0.114 µM (active)	0.0132 µM (active)	0.221 µM (active)	0.05 µM (active)	0.0248 µM (active)	84.3 µM (inactive)	0.0312 µM (active)		0.139 µM (active)	0.0387 µM (active)	3.27 µM (inactive)	24.3 µM (inactive)	0.0533 µM (active)	21 µM (inactive)	0.219 µM (active)	7.33 µM (inactive)	0.0771 µM (active)
NCCCCNCCCN1CC1	0.359 µM (active)	1.77 µM (inactive)	4.16 µM (inactive)	1.62 µM (inactive)	1.16 µM (inactive)	8 µM (inactive)	5.22 µM (inactive)	5.06 µM (inactive)	2.42 µM (inactive)	3.15 µM (inactive)	1.77 µM (inactive)	1.71 µM (inactive)	0.902 µM (active)	2.04 µM (inactive)	4.09 µM (inactive)	0.279 µM (active)	0.123 µM (active)	1.06 µM (active)	5.73 µM (inactive)
CC1=CC(=O)[C@@H](O)[C@]2(C)[C@H]3[C@@]4(O)OC[C@@]35[C@@H](C[C@@H]12)OC(=O)C(OC(=O)CC1=CCCC1)[C@H]5[C@@H](C)[C@H]4O (stereo not given in full)	0.0465 µM (active)	0.0665 µM (active)	0.0622 µM (active)	0.0269 µM (active)	0.136 µM (active)	< 0.0124 µM (active)	0.0311 µM (active)	0.022 µM (active)	0.0255 µM (active)	0.224 µM (active)	0.0164 µM (active)	0.0167 µM (active)	0.0344 µM (active)	0.0408 µM (active)	0.0649 µM (active)	0.0548 µM (active)	0.04 µM (active)	0.0409 µM (active)	0.04 µM (active)
